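Values below derive from 48-hour exposures of cells grown in 96-well plates, with endpoints linearly interpolated between the two concentrations bracketing the appropriate inhibition level. Here, GI50 denotes the concentration required for 50% inhibition of growth.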 The source made the active and inactive calls. Cut-off read from the data, not from the text of the source: active = GI50 up to about 1.1 µM and inactive = higher.
Tests used:
Test in all cases: DTP human tumour cell line panel, 48 h
786-0 = test system: 786-0
A498 = test system: A498
A549 = test system: A549
ACHN = test system: ACHN
BT-549 = test system: BT-549
CAKI-1 = test system: CAKI-1
CCRF-CEM = test system: CCRF-CEM
COLO 205 = test system: COLO 205
DU-145 = test system: DU-145
EKVX = test system: EKVX
HCC 2998 = test system: HCC 2998
HCT-116 = test system: HCT-116
HCT-15 = test system: HCT-15
HL-60 = test system: HL-60
HOP-62 = test system: HOP-62
HOP-92 = test system: HOP-92
HT-29 = test system: HT-29
Hs-578T = test system: Hs-578T
IGROV-1 = test system: IGROV-1
K562 = test system: K562
KM12 = test system: KM12
LOX IMVI = test system: LOX IMVI
M14 = test system: M14
MCF7 = test system: MCF7
MDA-MB-231 = test system: MDA-MB-231
MDA-MB-435 = test system: MDA-MB-435
MDA-N = test system: MDA-N
MOLT-4 = test system: MOLT-4
Malme-3M = test system: Malme-3M
NCI-H226 = test system: NCI-H226
NCI-H23 = test system: NCI-H23
NCI-H460 = test system: NCI-H460
NCI-H522 = test system: NCI-H522
NCI/ADR-RES = test system: NCI/ADR-RES
OVCAR-3 = test system: OVCAR-3
OVCAR-4 = test system: OVCAR-4
OVCAR-5 = test system: OVCAR-5
OVCAR-8 = test system: OVCAR-8
PC-3 = test system: PC-3
RPMI-8226 = test system: RPMI-8226
RXF 393 = test system: RXF 393
SF-268 = test system: SF-268
SF-295 = test system: SF-295
SF-539 = test system: SF-539
SK-MEL-28 = test system: SK-MEL-28
SK-MEL-2 = test system: SK-MEL-2
SK-MEL-5 = test system: SK-MEL-5
SK-OV-3 = test system: SK-OV-3
SN12C = test system: SN12C
SNB-19 = test system: SNB-19
SNB-75 = test system: SNB-75
SR = test system: SR
SW-620 = test system: SW-620
T47D = test system: T47D
TK-10 = test system: TK-10
U-251 = test system: U-251
UACC-257 = test system: UACC-257
UACC-62 = test system: UACC-62
UO-31 = test system: UO-31

CC(C)=CCC[C@@H](C)[C@H]1CC[C@@]2(C)[C@@H]3CC[C@H]4C(C)(C)[C@@H](O)CC[C@@]45C[C@@]35CC[C@]12C [CYCLOARTENOL]
GI50 (786-0): 43.8 µM (inactive)
GI50 (A498): 41.2 µM (inactive)
GI50 (A549): 21.6 µM (inactive)
GI50 (ACHN): 31.5 µM (inactive)
GI50 (BT-549): 21.1 µM (inactive)
GI50 (CAKI-1): 59.6 µM (inactive)
GI50 (CCRF-CEM): 23 µM (inactive)
GI50 (COLO 205): > 60 µM (inactive)
GI50 (DU-145): 59.7 µM (inactive)
GI50 (EKVX): 37.2 µM (inactive)
GI50 (HCC 2998): > 31.6 µM (inactive)
GI50 (HCT-116): 23.5 µM (inactive)
GI50 (HCT-15): > 100 µM
GI50 (HL-60): 33.7 µM (inactive)
GI50 (HOP-62): 24.9 µM (inactive)
GI50 (HOP-92): 17.7 µM (inactive)
GI50 (HT-29): > 100 µM (inactive)
GI50 (Hs-578T): 33.4 µM (inactive)
GI50 (IGROV-1): 16.1 µM (inactive)
GI50 (K562): 26 µM (inactive)
GI50 (KM12): > 56.8 µM (inactive)
GI50 (LOX IMVI): 21 µM (inactive)
GI50 (M14): 41 µM (inactive)
GI50 (MCF7): 31.8 µM (inactive)
GI50 (MDA-MB-231): > 44.9 µM (inactive)
GI50 (MDA-MB-435): > 41.9 µM (inactive)
GI50 (MDA-N): > 72.9 µM (inactive)
GI50 (MOLT-4): > 51.9 µM (inactive)
GI50 (Malme-3M): > 100 µM (inactive)
GI50 (NCI-H226): 26.5 µM (inactive)
GI50 (NCI-H23): 22.7 µM (inactive)
GI50 (NCI-H460): 17.8 µM (inactive)
GI50 (NCI-H522): 20.7 µM (inactive)
GI50 (NCI/ADR-RES): 23.4 µM (inactive)
GI50 (OVCAR-3): > 100 µM (inactive)
GI50 (OVCAR-4): > 100 µM (inactive)
GI50 (OVCAR-5): > 54.2 µM (inactive)
GI50 (OVCAR-8): 16.9 µM (inactive)
GI50 (PC-3): > 71.8 µM (inactive)
GI50 (RPMI-8226): 45 µM (inactive)
GI50 (RXF 393): 18 µM (inactive)
GI50 (SF-268): 27.7 µM (inactive)
GI50 (SF-295): > 48.2 µM (inactive)
GI50 (SF-539): > 49.7 µM (inactive)
GI50 (SK-MEL-28): 39.4 µM (inactive)
GI50 (SK-MEL-2): 27.2 µM (inactive)
GI50 (SK-MEL-5): > 44.4 µM (inactive)
GI50 (SK-OV-3): 53.5 µM (inactive)
GI50 (SN12C): 20 µM (inactive)
GI50 (SNB-19): 58.7 µM (inactive)
GI50 (SNB-75): > 55.7 µM (inactive)
GI50 (SR): 24.3 µM (inactive)
GI50 (SW-620): 58.2 µM (inactive)
GI50 (T47D): 51.4 µM (inactive)
GI50 (TK-10): > 100 µM (inactive)
GI50 (U-251): 15.5 µM (inactive)
GI50 (UACC-257): > 100 µM (inactive)
GI50 (UACC-62): 44.4 µM (inactive)
GI50 (UO-31): > 40.7 µM (inactive)

COc1cc(CNCc2cc(OC)c(OC)c(OC)c2)cc(OC)c1OC
GI50 (786-0): > 10 µM (inactive)
GI50 (A498): > 10 µM (inactive)
GI50 (A549): > 10 µM (inactive)
GI50 (ACHN): > 10 µM (inactive)
GI50 (BT-549): > 10 µM (inactive)
GI50 (CAKI-1): > 10 µM (inactive)
GI50 (CCRF-CEM): 2.37 µM (inactive)
GI50 (COLO 205): > 10 µM (inactive)
GI50 (DU-145): > 10 µM (inactive)
GI50 (EKVX): > 10 µM (inactive)
GI50 (HCC 2998): > 10 µM (inactive)
GI50 (HCT-116): > 10 µM (inactive)
GI50 (HCT-15): > 10 µM
GI50 (HL-60): > 4.62 µM (inactive)
GI50 (HOP-62): > 10 µM (inactive)
GI50 (HOP-92): > 6.07 µM (inactive)
GI50 (HT-29): > 10 µM (inactive)
GI50 (Hs-578T): > 10 µM (inactive)
GI50 (IGROV-1): > 10 µM (inactive)
GI50 (K562): > 4.95 µM (inactive)
GI50 (KM12): > 10 µM (inactive)
GI50 (LOX IMVI): > 8.38 µM (inactive)
GI50 (M14): > 10 µM (inactive)
GI50 (MCF7): > 10 µM (inactive)
GI50 (MDA-MB-231): > 10 µM (inactive)
GI50 (MDA-MB-435): > 10 µM (inactive)
GI50 (MDA-N): > 10 µM (inactive)
GI50 (MOLT-4): > 5.7 µM (inactive)
GI50 (Malme-3M): > 10 µM (inactive)
GI50 (NCI-H226): > 10 µM (inactive)
GI50 (NCI-H23): > 10 µM (inactive)
GI50 (NCI-H460): > 10 µM (inactive)
GI50 (NCI-H522): > 4.88 µM (inactive)
GI50 (NCI/ADR-RES): > 10 µM (inactive)
GI50 (OVCAR-3): > 10 µM (inactive)
GI50 (OVCAR-4): > 10 µM (inactive)
GI50 (OVCAR-5): > 10 µM (inactive)
GI50 (OVCAR-8): > 10 µM (inactive)
GI50 (PC-3): > 10 µM (inactive)
GI50 (RPMI-8226): 9.73 µM (inactive)
GI50 (RXF 393): > 10 µM (inactive)
GI50 (SF-268): > 10 µM (inactive)
GI50 (SF-295): > 10 µM (inactive)
GI50 (SF-539): > 10 µM (inactive)
GI50 (SK-MEL-28): > 10 µM (inactive)
GI50 (SK-MEL-2): > 10 µM (inactive)
GI50 (SK-MEL-5): > 10 µM (inactive)
GI50 (SK-OV-3): > 10 µM (inactive)
GI50 (SN12C): > 10 µM (inactive)
GI50 (SNB-19): > 10 µM (inactive)
GI50 (SNB-75): > 8.38 µM (inactive)
GI50 (SR): > 5.38 µM (inactive)
GI50 (SW-620): > 10 µM (inactive)
GI50 (T47D): > 10 µM (inactive)
GI50 (TK-10): > 10 µM (inactive)
GI50 (U-251): > 10 µM (inactive)
GI50 (UACC-257): > 10 µM (inactive)
GI50 (UACC-62): > 10 µM (inactive)
GI50 (UO-31): > 10 µM (inactive)
